# Assay results as given in patent publication US6680054B1 (priority 1996, dated 2004).
# Where two headings read alike, the source gives them in different places.
# How the values were obtained:
# [1] = system: influenza strain Tokyo A; type: cell-based
# [2] = system: influenza strain X-31 (H3N2); type: cell-based
# [3] = system: MDCK cells
# [4] = system: influenza A virus; type: cell-based
# [5] = molecular target: whole virus influenza neuraminidase, A/NWS/Tokyo/3/67/H1N2 (Influenza A virus, UniProt P06820); type: biochemical; conditions: read-out: inhibition constants (IC50), NWS/Tokyo
# Sequence of whole virus influenza neuraminidase, A/NWS/Tokyo/3/67/H1N2 (P06820 whole entry, looked up): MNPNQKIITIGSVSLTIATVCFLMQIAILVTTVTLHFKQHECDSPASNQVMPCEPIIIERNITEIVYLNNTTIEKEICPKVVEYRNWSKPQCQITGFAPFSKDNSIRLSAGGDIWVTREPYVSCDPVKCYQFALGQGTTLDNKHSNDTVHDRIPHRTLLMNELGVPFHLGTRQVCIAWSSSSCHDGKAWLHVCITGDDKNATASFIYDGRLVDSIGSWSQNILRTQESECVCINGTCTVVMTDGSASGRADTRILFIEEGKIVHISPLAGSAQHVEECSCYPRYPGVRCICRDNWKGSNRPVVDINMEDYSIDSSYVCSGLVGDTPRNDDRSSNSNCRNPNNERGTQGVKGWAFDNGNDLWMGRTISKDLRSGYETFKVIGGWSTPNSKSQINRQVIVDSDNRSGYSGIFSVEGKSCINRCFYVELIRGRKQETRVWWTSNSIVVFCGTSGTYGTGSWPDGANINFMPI
Compound,"MTC, minimum cytotoxic drug concentration ([3]; dog)","ID50, minimum compound concentration that inhibits cytopathic effect by 50% [4] [µg/mL]","MTC, minimum cytotoxic drug concentration [3]",further results
Fetuin,,,,"Lowest Concentration (μM of GG167 units) that Inhibited Agglutination, TOKYO [1]: 5.86 µM; Lowest Concentration (μM of GG167 units) that Inhibited Agglutination, X-31 [2]: <0.48 µM"
"CC(=O)NC1C(NC(=N)N)C=C(C(=O)O)OC1[C@H](O)[C@H](O)CO (stereo partly shown) [GG167, 4-guanidino-Neu5Ac2en]",>100,<0.32,,
"CC(=O)N[C@H]1[C@H]([C@H](O)[C@H](O)CO)OC(C(=O)O)=C[C@@H]1O [DANA, 2-deoxy-2,3-didehydro-N-acetylneuraminic acid]",,,,IC50 [5]: 6 µM
Polyacrylamide,,,>100,
7-{6′-{6″-[6″′-(6″″-(6′″″-aminocaproyl)-aminocaproyl)-aminocaproyl]-aminocaproyl}-aminohexyl-carbamoyl-oxy-4-guanidino-Neu5Ac2en [Compound 2c],,3.0,>100,
NC(=O)c1ncn([C@@H]2O[C@H](CO)[C@@H](O)[C@H]2O)n1 [Ribavirin],>32,1.0 to 2.6,,
